Measured values taken from US4738979A, “α2 -blocking derivatives of imidazole” (G. D. Searle & Co., priority 1985, dated 1988).

What was measured:
[1] = acute toxicity after oral administration to mice (LD50); conditions: mouse, in vivo, 15 days mortality
Procedure: The acute toxicity of the compounds of the present invention was studied after oral administration to mice. The products to be tested, suspended in a 1% tragacanth gum mucilage, were administered by means of an intragastric probe to groups of three male mice which had fasted since the preceding day. The doses tested are a function of the effect observed and can vary from 3,000 to 3 mg/kg or less. The mortality was recorded for 15 days. The lethal dose for 50% of the animals (LD50) was calculated according to the method of J. Litchfield and F. Wilcoxon, J. Pharmacol. Exp. Ther., 96, 99 (1949) and expressed in mg/kg. The effect of the products on the behaviour of the animals is observed until 5 to 6 hours after the treatment indicated above and after 24 hours, using a method derived from that of S. Irwin, described by R. A. Turner, Screening Methods in Pharmacology, Chapter 3, pages 22-34, Academic Press, 1965. If anomalies are noted, the observation is prolonged and smaller doses are tested.

[2] = test system: 3-mercaptopropionic acid (3-MPA)-induced tonic extension in mice; experiment: protection against 3-mercaptopropionic acid (3-MPA)-induced tonic extension in mice; type: in vivo; conditions: 100 mg/kg orally, 30 minutes prior to 3-MPA (120 mg/kg s.c.)
Procedure: In the second study the anti-convulsant effect of the compounds of the present invention was examined in two seizure models; bicuculline-induced tonic extension in mice and 3-mercaptopropionic acid (3-MPA)-induced tonic extension in mice.
In the bicuculline study, the ability of the compounds of the present invention to protect against tonic extension (involving rigidity) was evaluated as follows. Each test compound was administered to a group of ten mice at a dose of 10 mg/kg, 3 hours prior to the i.v. administration of bicuculline (0.7 mg/kg). Anticonvulsant activity in this test is expressed as percentage of animals tested. The results are given in Table II, column 6, and indicate that several compounds display significant anticonvulsive activity in this test. The anticonvulsant effect of the compounds has also been tested with respect to the tonic extension induced by 3-mercaptopropionic acid (120 mg/kg subcutaneously) in mice.
In the 3-MPA assay, the compounds of the present invention are administered orally at a dose of 100 mg/kg 30 minutes prior to administration of 3-MPA. Each compound was tested on a group of 5 mice; if more than 1 mouse was protected, a second group of 5 mice was tested.

[3] = test system: α1 -adrenergic receptors; experiment: binding to α1-adrenergic receptors on rat brain homogenates (3H-WB 4101); conditions: 1.6 nM 3H-WB 4101
Procedure: (§1) The activity of the compounds according to the invention with respect to binding of the α-adrenergic receptors was determined in vitro according to a method deriving from the works of B. R. Rouot et al., Life Sci., 25, 769 (1979) and of D. U'Prichard et al., Mol. Pharmacol., 13, 454 (1977). This method consists in measuring the binding to the receptor on rat brain homogenates, by marking by means of a specific tritriated ligand placed in competition with the product to be tested.
(§2) In the presenct case the binding to the α1 -adrenergic receptors was measured by means of 1.6 nM of ^3 H-WB 4101 and the binding to the α2 -adrenergic receptors by means of 0.7 nM of ^3 H-p. aminoclonidine, the non-specific binding being determined by 1,000 nM of phentolamine. The results are given in Table II, column 3, and are expressed in terms of percentage of inhibition of the specific binding of 10^-7 molar compound concentration.
(§3) (2) The specific binding is the total binding less the nonspecific
(§4) binding. The total binding is the binding in the absence of nonradioactiv
(§5) drug. The nonspecific binding is the binding in the presence of 1,000 nM
(§6) of phentolamine. The products of the invention are tested at a
(§7) concentration of 10^-7 molar.

[4] = biological target: T1, α2 -adrenergic receptors (Rattus norvegicus, UniProt P22909); experiment: binding to α2-adrenergic receptors on rat brain homogenates (3H-p. aminoclonidine); conditions: 10^-7 M; for inhibition at 0.1 µM: rat brain homogenates, 0.7 nM 3H-p. aminoclonidine, read-out: % Inhibition of the Specific Binding at 10^-7 M for α2 Recep.
T1 construct: from tissue; host or cells: rat brain homogenates
T1 sequence (P22909 1-465): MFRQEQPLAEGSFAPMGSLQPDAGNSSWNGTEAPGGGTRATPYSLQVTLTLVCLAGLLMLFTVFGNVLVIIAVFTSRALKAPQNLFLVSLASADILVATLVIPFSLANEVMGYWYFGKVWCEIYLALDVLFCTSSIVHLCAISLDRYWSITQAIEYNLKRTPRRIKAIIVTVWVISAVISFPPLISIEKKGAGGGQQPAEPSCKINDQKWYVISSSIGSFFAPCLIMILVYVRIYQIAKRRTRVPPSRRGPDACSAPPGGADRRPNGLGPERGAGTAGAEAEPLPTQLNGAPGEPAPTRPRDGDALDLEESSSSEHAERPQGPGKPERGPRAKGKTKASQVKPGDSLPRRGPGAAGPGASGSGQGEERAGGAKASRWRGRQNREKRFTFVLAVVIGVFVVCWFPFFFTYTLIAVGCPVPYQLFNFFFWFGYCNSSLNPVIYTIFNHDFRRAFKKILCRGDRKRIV
Procedure: as §1, §2, §3, §4, §5, §6, §7

[5] = test system: α2 -adrenergic receptors; conditions: cited from earlier work

Structure (SMILES) | LD50 at 360 h [1] [mg/kg] | anticonvulsant effect versus 3-MPA (in words) [2] | % Inhibition of the Specific Binding at 10^-7 M for α1 Recep. [3] [%] | inhibition at 0.1 µM [4] [%] | affinity for α2 receptors (in words) ([4]; in vitro binding assay) | selectivity (in words) [5] | side-effects (in words) [5]
Fc1ccccc1C(Cc1c[nH]cn1)c1ccccc1 (stereo not shown) [Compound 28, 4(5)-{[2-(2-fluorophenyl)-2-phenyl]ethyl}imidazole] | 94 | potent anticonvulsant effect | 8 | 95 | high affinity |  | 
c1ccc(-c2ccc(C(Cc3c[nH]cn3)c3ccccc3)cc2)cc1 (stereo not shown) [Compound 29, 4(5)-{[2-(4-biphenyl)-2-phenyl]ethyl}imidazole] | > 300 | potent anticonvulsant effect | 15 | 23 |  |  | 
COC(=O)[C@H]1[C@H]2C[C@H]3c4[nH]c5ccccc5c4CCN3C[C@H]2CC[C@@H]1O [rauwolscine] |  |  |  |  |  | lack selectivity | numerous side-effects
COC(=O)[C@@H]1[C@H]2C[C@H]3c4[nH]c5ccccc5c4CCN3C[C@@H]2CC[C@@H]1O [yohimbine] |  |  |  |  |  | lack selectivity | numerous side-effects
